Assay results as given in article PMC8600679, “Substituted Two- to Five-Ring Polycyclic Aromatic Compounds Are Potent Agonists of Atlantic Cod (Gadus morhua) Aryl Hydrocarbon Receptors Ahr1a and Ahr2a” (Environmental Science & Technology, 2021).
pEC50: −log10 of the molar value. Read-outs that look alike come from different tables or passages of the source.

Assays:
[1] = molecular target: T1, Atlantic cod Ahr2a (Gadus morhua, UniProt A0A6H1Z3G8); experiment: cell-based; details: for fold higher REP25 with Ahr2a compared to Ahr1a: Ahr2a versus Ahr1a; for Ahr2a REP25: EC25 of TCDD divided by concentration of PAC giving 25% of TCDD response; for Activation of Ahr2a (agonist or not): in vitro transactivation; for pEC50: read-out: Ahr2a EC50; for Efficacy compared to TCDD via Ahr2a: Welch's t-test, Supporting Table S6
T1 sequence (A0A6H1Z3G8 1-1127): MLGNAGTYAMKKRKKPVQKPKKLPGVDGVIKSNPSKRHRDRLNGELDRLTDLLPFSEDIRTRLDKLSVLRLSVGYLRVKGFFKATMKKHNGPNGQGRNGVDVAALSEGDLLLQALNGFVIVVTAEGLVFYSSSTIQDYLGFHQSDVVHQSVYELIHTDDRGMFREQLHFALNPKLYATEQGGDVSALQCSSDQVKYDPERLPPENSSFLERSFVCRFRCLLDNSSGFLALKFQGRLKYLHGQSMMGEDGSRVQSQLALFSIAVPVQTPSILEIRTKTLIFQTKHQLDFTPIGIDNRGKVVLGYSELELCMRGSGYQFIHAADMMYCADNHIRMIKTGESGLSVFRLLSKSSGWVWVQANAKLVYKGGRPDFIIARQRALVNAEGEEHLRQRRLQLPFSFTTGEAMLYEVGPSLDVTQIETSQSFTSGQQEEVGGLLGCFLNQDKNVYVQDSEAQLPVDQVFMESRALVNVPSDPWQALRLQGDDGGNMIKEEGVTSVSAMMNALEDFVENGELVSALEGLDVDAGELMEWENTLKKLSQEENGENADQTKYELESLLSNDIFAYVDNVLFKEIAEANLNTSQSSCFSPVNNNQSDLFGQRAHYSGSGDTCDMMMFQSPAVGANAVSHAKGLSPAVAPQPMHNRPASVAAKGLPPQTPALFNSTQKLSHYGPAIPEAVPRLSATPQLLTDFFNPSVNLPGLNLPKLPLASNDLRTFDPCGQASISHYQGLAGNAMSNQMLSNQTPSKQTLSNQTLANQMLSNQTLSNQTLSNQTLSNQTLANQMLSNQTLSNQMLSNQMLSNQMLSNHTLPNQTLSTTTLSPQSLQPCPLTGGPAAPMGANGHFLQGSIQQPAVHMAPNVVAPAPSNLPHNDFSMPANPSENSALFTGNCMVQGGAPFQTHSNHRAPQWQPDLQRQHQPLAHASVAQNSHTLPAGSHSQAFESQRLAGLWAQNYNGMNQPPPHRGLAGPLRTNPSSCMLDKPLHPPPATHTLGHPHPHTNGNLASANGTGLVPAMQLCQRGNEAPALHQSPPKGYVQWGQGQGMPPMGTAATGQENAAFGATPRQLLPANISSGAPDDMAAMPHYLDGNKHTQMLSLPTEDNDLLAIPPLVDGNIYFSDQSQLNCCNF

[2] = molecular target: Atlantic cod Ahr1a (Gadus morhua, UniProt A0A6H1Z2L5); experiment: cell-based; details: for Ahr1a REP25: EC25 of TCDD divided by concentration of PAC giving 25% of TCDD response; for Activation of Ahr1a (agonist or not): in vitro transactivation; for pEC50: read-out: Ahr1a EC50; for Efficacy compared to TCDD with Ahr1a: Welch's t-test, Supporting Table S6
[3] = COS-7, curve did not reach a plateau: relative response at the highest tested concentration, percent of TCDD maximum, read-out: Ahr2a Relative Emax (%), marked *
[4] = COS-7, curve did not reach a plateau: relative response at the highest tested concentration, percent of TCDD maximum, read-out: Ahr1a Relative Emax (%), marked *
[5] = Supplementary Table S5, read-out: Potency (EC50, nM) Ahr2a
[6] = percent of maximum efficacy determined for TCDD, COS-7 cells, 24 h exposure, None = no agonistic response significantly different from solvent, read-out: Ahr2a Relative Emax (%)
[7] = COS-7, Supplementary Table S5, read-out: Efficacy (Emax, %) Ahr1a
[8] = percent of maximum efficacy determined for TCDD, COS-7 cells, 24 h exposure, None = no agonistic response significantly different from solvent, read-out: Ahr1a Relative Emax (%)
[9] = percent of maximum efficacy determined for TCDD, COS-7 cells, 24 h exposure, None = no agonistic response significantly different from solvent
[10] = Ahr2a EC50 (nM), COS-7 cells, 24 h exposure
[11] = COS-7, read-out: Ahr2a Relative Emax (%)
[12] = Ahr1a EC50 (nM), COS-7 cells, 24 h exposure
[13] = COS-7, read-out: Ahr1a Relative Emax (%)
[14] = COS-7, Supplementary Table S5, read-out: Efficacy (Emax, %) Ahr2a
[15] = Supplementary Table S5, read-out: Potency (EC50, nM) Ahr1a

Chain of Atlantic cod Ahr1a (A0A6H1Z2L5 1-957): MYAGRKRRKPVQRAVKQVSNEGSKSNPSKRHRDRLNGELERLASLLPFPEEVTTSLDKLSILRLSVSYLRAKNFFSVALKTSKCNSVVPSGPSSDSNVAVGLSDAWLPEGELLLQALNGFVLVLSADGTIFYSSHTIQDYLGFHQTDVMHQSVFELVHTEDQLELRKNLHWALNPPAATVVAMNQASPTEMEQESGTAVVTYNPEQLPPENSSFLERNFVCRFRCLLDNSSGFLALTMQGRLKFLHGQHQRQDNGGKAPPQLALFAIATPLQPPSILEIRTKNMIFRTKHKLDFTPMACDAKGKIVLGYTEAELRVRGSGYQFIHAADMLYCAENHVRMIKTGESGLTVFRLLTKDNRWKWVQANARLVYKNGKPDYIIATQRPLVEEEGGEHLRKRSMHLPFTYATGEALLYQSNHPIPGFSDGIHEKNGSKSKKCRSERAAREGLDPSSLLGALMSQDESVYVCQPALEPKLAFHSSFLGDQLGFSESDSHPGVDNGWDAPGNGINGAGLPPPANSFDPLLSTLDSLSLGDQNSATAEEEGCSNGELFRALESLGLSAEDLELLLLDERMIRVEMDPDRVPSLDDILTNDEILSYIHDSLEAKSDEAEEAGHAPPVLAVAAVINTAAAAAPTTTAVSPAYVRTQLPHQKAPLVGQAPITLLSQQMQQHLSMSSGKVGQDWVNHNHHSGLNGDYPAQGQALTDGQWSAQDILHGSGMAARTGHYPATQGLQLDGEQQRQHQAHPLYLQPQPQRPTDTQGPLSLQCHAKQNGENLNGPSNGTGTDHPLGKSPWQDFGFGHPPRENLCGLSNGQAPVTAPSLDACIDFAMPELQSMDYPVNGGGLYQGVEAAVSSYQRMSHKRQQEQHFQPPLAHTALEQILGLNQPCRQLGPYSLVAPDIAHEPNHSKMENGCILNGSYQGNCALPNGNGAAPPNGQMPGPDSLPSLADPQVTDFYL
Chain of Atlantic cod Ahr1a (A0A8C5CZZ9 1-645 partner): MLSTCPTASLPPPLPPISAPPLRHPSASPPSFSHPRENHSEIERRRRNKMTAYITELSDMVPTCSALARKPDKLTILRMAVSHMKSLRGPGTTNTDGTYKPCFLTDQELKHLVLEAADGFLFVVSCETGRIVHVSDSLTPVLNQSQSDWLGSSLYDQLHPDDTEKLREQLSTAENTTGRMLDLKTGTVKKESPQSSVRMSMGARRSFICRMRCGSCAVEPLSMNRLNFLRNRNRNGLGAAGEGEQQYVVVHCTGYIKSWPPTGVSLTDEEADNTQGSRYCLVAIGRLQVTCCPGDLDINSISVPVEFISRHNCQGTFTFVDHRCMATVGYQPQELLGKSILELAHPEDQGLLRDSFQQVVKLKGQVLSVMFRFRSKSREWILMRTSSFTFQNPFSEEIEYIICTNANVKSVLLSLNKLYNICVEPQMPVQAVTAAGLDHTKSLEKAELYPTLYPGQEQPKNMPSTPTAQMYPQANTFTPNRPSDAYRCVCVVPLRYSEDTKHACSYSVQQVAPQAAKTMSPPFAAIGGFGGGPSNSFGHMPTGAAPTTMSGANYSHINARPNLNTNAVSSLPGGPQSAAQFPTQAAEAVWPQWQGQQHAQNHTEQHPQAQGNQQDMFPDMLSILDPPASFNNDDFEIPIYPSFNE

| SMILES | Ahr2a REP25 [1] | Activation of Ahr2a (agonist or not) [1] | Ahr1a REP25 [2] | Activation of Ahr1a (agonist or not) [2] | Emax [1, 6] | Efficacy compared to TCDD with Ahr1a [2] | Ahr2a Relative Emax (%) [1, 9] | Ahr1a Relative Emax (%) [2, 9] | also measured |
| --- | --- | --- | --- | --- | --- | --- | --- | --- | --- |
| O[C@@H]1C=Cc2ccccc2[C@H]1O [R,R-1,2-DHN, (1R,2R)-1.2-Dihydronaphthalene-1,2-diol] | 0.00124 | activated both Ahr1a and Ahr2a | 0.00028 | activated both Ahr1a and Ahr2a | – | – | – | – | fold higher REP25 with Ahr2a compared to Ahr1a [1]: 5- to 10 fold; Emax [1, 3]: 140%; Emax [2, 4]: 145% |
| Cc1cccc2ccc3c4ccccc4ccc3c12 [4-MC, 4-Methylchrysene] | 0.0217 | – | 0.041 | – | 55.9% | higher efficacies (superefficacies) than TCDD | – | – | pEC50 ([1]; COS-7 cells, 24 h exposure): 6.89; EC50 [1, 5]: 128 nM; Efficacy compared to TCDD via Ahr2a [1]: lower efficacies in comparison to TCDD; Emax [2, 7]: 112%; pEC50 ([2]; COS-7 cells, 24 h exposure): 6.92; Emax [2, 8]: 113% |
| c1ccc2c(c1)Cc1ccccc1-2 [FLU, Fluorene] | – | did not activate | – | did not activate | – | – | None | None | – |
| c1ccc2c(c1)ccc1ccccc12 [PHE, Phenanthrene] | – | did not activate | – | did not activate | – | – | None | None | – |
| Cc1ccc2c(ccc3c(C)cccc32)c1 [1,7-DMP, 1,7-Dimethylphenanthrene] | – | did not activate | – | did not activate | – | – | None | None | – |
| c1ccc2c(c1)cc1ccc3cccc4ccc2c1c34 [BAP, Benzo[a]pyrene] | – | agonist for both Ahrs | 0.0956 | agonist for both Ahrs | – | higher efficacies (superefficacies) than TCDD | – | – | EC50 [1, 10]: 6.8 nM; fold higher REP25 with Ahr2a compared to Ahr1a [1]: 5- to 10 fold; Emax [1, 11]: 103%; Emax ([1]; COS-7, read-out: Efficacy (Emax, %) Ahr2a): 103%; EC50 [2, 12]: 25.8 nM; Emax [2, 13]: 107%; Emax ([2]; COS-7, read-out: Efficacy (Emax, %) Ahr1a): 107% |
| Oc1ccc2c(ccc3c4ccccc4ccc23)c1 [2-COH, Chrysene-2-ol] | 0.0038 | – | 0.00268 | – | – | efficacies similar to that of TCDD | – | – | EC50 [1, 10]: 380 nM; Emax [1, 11]: 40.8%; Efficacy compared to TCDD via Ahr2a [1]: lower efficacies in comparison to TCDD; EC50 [2, 12]: 325 nM; Emax [2, 13]: 91.1%; EC50 ([2]; Potency (EC50, nM) Ahr1a, Supplementary Table S5): 324 nM |
| CCCc1ccc2ccc3ccccc3c2c1 [3-PP, 3-Propylphenanthrene] | – | activated both Ahr1a and Ahr2a | 0.00011 | activated both Ahr1a and Ahr2a | 12.4% | – | – | – | Emax [2, 4]: 42.5% |
| c1ccc2ccccc2c1 [NAP, Naphthalene] | – | did not activate | – | did not activate | – | – | None | None | – |
| c1ccc2c(c1)sc1ccccc12 [DBT, Dibenzothiophene] | – | did not activate | – | did not activate | – | – | None | None | – |
| Cc1ccc2c(ccc3c4ccccc4ccc23)c1 [2-MC, 2-Methylchrysene] | – | – | 0.324 | – | 127% | higher efficacies (superefficacies) than TCDD | – | – | Emax [1, 14]: 127%; pEC50 ([1]; COS-7 cells, 24 h exposure): 7.38; Efficacy compared to TCDD via Ahr2a [1]: superefficacies; Emax [2, 7]: 125%; pEC50 ([2]; COS-7 cells, 24 h exposure): 7.66; Emax [2, 8]: 125% |
| O[C@@H]1C=Cc2c(ccc3ccccc23)[C@H]1O [R,R-1,2-DHP, (1R,2R)-1.2-Dihydrophenanthrene-1,2-diol] | 0.000044 | activated both Ahr1a and Ahr2a | 0.00002 | activated both Ahr1a and Ahr2a | – | – | – | – | Emax [1, 3]: 25.9%; Emax [2, 4]: 36.1% |
| Cc1ccc2c(ccc3cc(C)ccc32)c1 [2,7-DMP, 2,7-Dimethylphenanthrene] | – | did not activate | – | did not activate | – | – | None | None | – |
| Cc1ccc2ccc3c4ccccc4ccc3c2c1 [3-MC, 3-Methylchrysene] | 0.167 | – | 0.0413 | – | 102% | efficacies similar to that of TCDD | – | – | Emax [1, 14]: 102%; pEC50 ([1]; COS-7 cells, 24 h exposure): 7.27; Emax [2, 7]: 110%; EC50 [2, 15]: 101 nM; Emax [2, 8]: 111% |
| CCc1ccc2ccc3ccccc3c2c1 [3-EP, 3-Ethylphenanthrene] | – | did not activate | – | did not activate | – | – | None | None | – |
| COc1ccc2c(ccc3c4ccccc4ccc23)c1 [2-MOC, 2-Methoxychrysene] | – | – | 0.244 | – | 115% | efficacies similar to that of TCDD | – | – | Emax [1, 14]: 114%; pEC50 ([1]; COS-7 cells, 24 h exposure): 7.70; Efficacy compared to TCDD via Ahr2a [1]: superefficacies; pEC50 ([2]; COS-7 cells, 24 h exposure): 7.89; Emax [2, 8]: 95.9% |
| COc1cccc2c1ccc1c3ccccc3ccc21 [1-MOC, 1-Methoxychrysene] | 0.0243 | – | 0.0277 | – | 66.4% | efficacies similar to that of TCDD | – | – | pEC50 ([1]; COS-7 cells, 24 h exposure): 6.80; EC50 [1, 5]: 160 nM; Efficacy compared to TCDD via Ahr2a [1]: lower efficacies in comparison to TCDD; pEC50 ([2]; COS-7 cells, 24 h exposure): 6.99; EC50 [2, 15]: 102 nM; Emax [2, 8]: 97.3% |
